Assay results published in patent publication US20180055868A1, “METHODS AND COMPOSITIONS FOR STIMULATING BONE REGENERATION” (New York University, priority 2012, published 2018).

Key:
[1] = test system: trephined calvarium bone defect; assay: Trephined 3 mm calvarial defect, collagen matrix reinjected daily, microCT bone regeneration (Example 2); type: in vivo, mice; details: 8 weeks post trephination; for concentration achieving maximal effect on bone regeneration / dose dependence of effect on bone regeneration: FIG. 3; for effect on bone regeneration: microCT, FIG. 2
Description: In FIG. 2B, the percentage bone regeneration is calculated as the percent of the original defect that was now filled with bone.
(§1) A 3 mm portion of the calvarium was trephined with a drill followed by implantation of a collagen matrix soaked in either a vehicle or a pharmacologic agent and/or receptor antagonists to promote bone regeneration. The matrix was reinjected daily with the agent for periods ranging from 2-8 weeks prior to harvest of the mice and examination of the calvaria. […] Experiments were performed with specific agonists and antagonists at varying doses, and specific receptor agonists were tested on corresponding knockout mice to better confirm the role of the indicated receptor.
(§2) Some of the calvaria were decalcified, and histochemical and immunohistochemical staining and microscopic analyses were performed. Other calvaria were cleaned of adherent tissue and subject to microCT analysis for bone defect size and percent regeneration measures.

[2] = test system: trephined calvarium bone defect in A2BKO mice; assay: Calvarial defect bone regeneration in A2B receptor knockout (A2BKO) mice; type: in vivo; details: 8 weeks post trephination, FIG. 5
Description: as §1

[3] = test system: osteoblasts and osteoclasts in the regenerating bone; assay: Histochemical and immunohistochemical staining of regenerating calvarial bone sections; type: in vivo, mice; details: for TRAP stained osteoclasts in the regenerating bone / alkaline phosphatase positive osteoblasts in the regenerating bone / RANK+ cells in the regenerating bone / RANKL+ cells in the regenerating bone / osteoprotegerin+ cells in the regenerating bone: cells/hpf vs control; for TRAP stained osteoclasts in the regenerating bone / alkaline phosphatase positive osteoblasts in the regenerating bone: FIG. 7; for bone formation shown histologically: histology of calvaria, FIG. 9; for RANK+ cells in the regenerating bone / RANKL+ cells in the regenerating bone / osteoprotegerin+ cells in the regenerating bone: immunohistochemistry, FIG. 8
From the text: Shown in FIG. 7A are representative medium powered fields of calvarial sections stained immunohistochemically for alkaline phosphatase (left hand column, a marker for osteoblasts). Shown in the next column of figures are sections stained histochemically for tartrate resistant acid phosphatase (a marker for osteoclasts). Arrows in these figures point to osteoblasts (first column) or osteoclasts (second column).
Paraffin embedded sections are stained immunohistochemically for RANK, RANKL or osteoprotegerin. Slides are imaged and positive cells (brown) are enumerated in three fields. Shown on the left are representative medium power sections of immunohistochemcically stained sections.
Staining of decalcified bone sections for osteoclasts (TRAP staining) and osteoblasts (alkaline phosphatase staining) was performed. Immunostaining for other markers of osteoclast (cathepsin K) lineage and other molecules of interest (e.g. semaphorin 4D, plexin-B1, nuclear b-catenin) were performed.
as §2

[4] = test system: peripheral blood monocytes; details: effect mediated by adenosine acting at A1 receptors; cited from earlier work
[5] = target: T1, A3 adenosine receptor (Homo sapiens, UniProt P0DMS8); details: cited from earlier work
T1 sequence (P0DMS8 1-318): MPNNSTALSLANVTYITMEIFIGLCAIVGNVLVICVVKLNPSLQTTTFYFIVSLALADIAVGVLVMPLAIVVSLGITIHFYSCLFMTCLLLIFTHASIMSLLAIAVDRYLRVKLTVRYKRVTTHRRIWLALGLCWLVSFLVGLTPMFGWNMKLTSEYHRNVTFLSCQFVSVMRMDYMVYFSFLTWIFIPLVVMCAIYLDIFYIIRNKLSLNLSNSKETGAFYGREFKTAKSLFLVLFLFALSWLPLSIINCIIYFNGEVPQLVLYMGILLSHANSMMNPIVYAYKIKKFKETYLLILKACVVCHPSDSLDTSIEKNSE

[6] = test system: defect in mouse calvaria; assay: 3 mm mouse calvarial bone defect with drug-soaked collagen matrix, microCT (Example 1); type: in vivo, C57B6 mice; details: collagen matrix in 3 mm calvarial defect, 8 weeks
Description: . Under general anesthesia a 3 mm in diameter defect is drilled into the skull of C57B6 mice. […]. The matrix is then reinjected with 100 μl of these agents daily for 8 weeks before harvest. […] FIG. 1B represents the percentage bone regeneration calculated as the percent of the original defect that was now filled with bone. Shown are the means (+SD) of results obtained in 3 animals for each condition. Results were analyzed by ANOVA. ***p<0.001
A 3 mm in diameter defect was created in mouse calvaria into which was fit a collagen matrix. […].

Structure (SMILES) | concentration achieving maximal effect on bone regeneration [1] [µM] | dose dependence of effect on bone regeneration [1] | effect on bone regeneration [1] | TRAP stained osteoclasts in the regenerating bone [3] | alkaline phosphatase positive osteoblasts in the regenerating bone [3] | bone formation shown histologically [3] | RANK+ cells in the regenerating bone [3] | RANKL+ cells in the regenerating bone [3] | osteoprotegerin+ cells in the regenerating bone [3] | further results
N#Cc1c(N)nc(SCC(N)=O)c(C#N)c1-c1ccc(OCC2CC2)cc1 [BAY606583] | 1 | dose-dependent | stimulate bone regeneration |  |  |  |  |  |  | 
CCNC(=O)[C@H]1O[C@@H](n2cnc3c(N)nc(NCCc4ccc(CCC(=O)O)cc4)nc32)[C@H](O)[C@@H]1O [CGS21680] | 1 | dose-dependent | stimulate bone regeneration | reduce | increase | bone formation | reduction | reduction | increase | effect of the agent on bone regeneration upon deletion of the A2B receptor [2]: reverses the effect
CCCn1c(=O)c2[nH]c(C3CCCC3)nc2n(CCC)c1=O [DPCPX, 8-Cyclopentyl-1,3-dipropylxanthine] | 1 | dose-dependent | stimulate bone regeneration | reduce | increase | bone formation | reduction | reduction | increase | effect of the agent on bone regeneration upon deletion of the A2B receptor [2]: reverses the effect
CN(Cc1cnc2nc(N)nc(N)c2n1)c1ccc(C(=O)N[C@@H](CCC(=O)O)C(=O)O)cc1 [Methotrexate] |  |  |  |  |  |  |  |  |  | giant cell formation [4]: increases giant cell formation
Nc1nc(NCCc2ccc(O)cc2)nc2nc(-c3ccco3)nn12 [ZM241385] |  |  |  |  |  |  |  |  |  | effect of antagonist on bone regeneration promoted by dipyridamole ([1]; FIG. 4): blocks the effect; effect of antagonist on bone regeneration promoted by the A2A agonist CGS21680 ([1]; FIG. 4): blocks the effect
CNC(=O)[C@H]1O[C@@H](n2cnc3c(NCc4cccc(I)c4)ncnc32)[C@H](O)[C@@H]1O [adenosine A3 receptor agonist] | 1 | dose-dependent | no effect |  |  |  |  |  |  | 
Nc1ncnc2c1ncn2[C@@H]1O[C@H](CO)[C@@H](O)[C@H]1O [adenosine] |  |  |  |  |  |  |  |  |  | affinity for adenosine [5]: low-micromolar range
OCCN(CCO)c1nc(N2CCCCC2)c2nc(N(CCO)CCO)nc(N3CCCCC3)c2n1 [dipyridamole] | 1 | dose-dependent | promotes bone regeneration | reduce | increase | bone formation | reduction | reduction | increase | effect on bone regeneration [6]: stimulates bone regeneration
